The text below walks through data of patent publication US11174232B2, “Substituted heterocyclyl derivatives as CDK inhibitors” (Aurigene Discovery Technologies Limited, priority 2015, dated 2021).

This test addresses CDK7/CycH/MNAT1 (Homo sapiens (Human), UniProt P50613). Briefly: Biochemical Assay for CDK7 (TR-FRET kinase assay). The conditions noted are these: 60 min pre-incubation with kinase, 1 mM ATP; for inhibition at 10 µM: 10 μM compound. In a few lines: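 TR-FRET with 5 nM CDK7/CycH/MNAT1, compound pre-incubated 60 min at room temperature, then 100 nM ULight-MBP and 1 mM ATP for 60 min; stopped with EDTA, Eu anti-phospho-MBP read at 665/615 nm. 1% DMSO; IC50 from sigmoidal fit. Time-dependence tested with 20, 60, 180 min pre-incubation.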
In general terms: TR-FRET usually uses a lanthanide donor and a delayed reading to cut background.

Chain of CDK7/CycH/MNAT1 (P50613 whole entry): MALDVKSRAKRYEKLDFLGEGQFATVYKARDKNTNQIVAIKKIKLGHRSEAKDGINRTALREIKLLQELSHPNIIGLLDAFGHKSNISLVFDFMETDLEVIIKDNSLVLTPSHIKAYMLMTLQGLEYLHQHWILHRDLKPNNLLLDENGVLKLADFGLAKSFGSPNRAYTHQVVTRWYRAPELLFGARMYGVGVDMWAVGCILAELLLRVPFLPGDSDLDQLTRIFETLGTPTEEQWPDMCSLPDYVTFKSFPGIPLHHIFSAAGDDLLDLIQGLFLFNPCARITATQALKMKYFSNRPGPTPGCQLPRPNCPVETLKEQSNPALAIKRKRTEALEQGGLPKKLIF
Chain of CDK7/CycH/MNAT1 (P51946 whole entry partner): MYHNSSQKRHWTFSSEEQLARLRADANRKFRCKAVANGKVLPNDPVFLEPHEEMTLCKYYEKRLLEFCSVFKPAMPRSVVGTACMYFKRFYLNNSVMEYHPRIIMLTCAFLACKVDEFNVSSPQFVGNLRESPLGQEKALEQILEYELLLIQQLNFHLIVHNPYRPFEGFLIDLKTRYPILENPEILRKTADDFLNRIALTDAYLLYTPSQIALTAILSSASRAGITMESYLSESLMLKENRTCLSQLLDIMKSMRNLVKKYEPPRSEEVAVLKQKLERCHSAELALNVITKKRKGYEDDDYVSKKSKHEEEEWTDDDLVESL
Chain of CDK7/CycH/MNAT1 (P51948 whole entry partner): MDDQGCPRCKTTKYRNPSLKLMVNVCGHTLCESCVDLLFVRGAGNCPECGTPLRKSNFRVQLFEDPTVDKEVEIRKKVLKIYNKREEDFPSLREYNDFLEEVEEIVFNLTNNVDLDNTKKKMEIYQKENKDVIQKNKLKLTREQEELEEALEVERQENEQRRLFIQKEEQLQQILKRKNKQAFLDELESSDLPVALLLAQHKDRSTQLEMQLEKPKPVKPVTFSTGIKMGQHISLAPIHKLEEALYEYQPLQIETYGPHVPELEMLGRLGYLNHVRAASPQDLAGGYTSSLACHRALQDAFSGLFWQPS

Turning to `C=CC(=O)Nc1c(C)cc(-c2cccc(C(C)C(=O)Nc3cc(C4CC4)[nH]n3)c2)cc1C` (centres unmarked) [Compound 67, N-(3′-(1-((5-cyclopropyl-1H-pyrazol-3-yl)amino)-1-oxopropan-2-yl)-3,5-dimethyl-[1,1′-biphenyl]-4-yl)acrylamide], the inhibition at 10 µM was 79% and the IC50 was above 100 nM. For `COCCN(C)C/C=C/C(=O)Nc1ccc(-c2cccc(C(C)C(=O)Nc3cc(C4CC4)[nH]n3)c2)cn1` (centres unmarked) [Compound 68, (E)-N-(5-(3-(1-((5-cyclopropyl-1H-pyrazol-3-yl)amino)-1-oxopropan-2-yl)phenyl)pyridin-2-yl)-4-((2-methoxyethyl)(methyl)amino)but-2-enamide] the same measures were 95% and below 25 nM. For `CC(C(=O)Nc1cc(C2CC2)[nH]n1)c1cccc(-c2ccc(NC(=O)/C=C/Cn3ccnc3)nc2)c1` (centres unmarked) [Compound 69, (E)-N-(5-(3-(1-((5-cyclopropyl-1H-pyrazol-3-yl)amino)-1-oxopropan-2-yl)phenyl)pyridin-2-yl)-4-(1H-imidazol-1-yl)but-2-enamide] the same measures were 87% and 25 to 100 nM. For `COC[C@@H]1CCCN1C/C=C/C(=O)Nc1ccc(-c2cccc(C(C)C(=O)Nc3cc(C4CC4)[nH]n3)c2)cn1` (stereo partly drawn) [Compound 70, (E)-N-(5-(3-(1-((5-cyclopropyl-1H-pyrazol-3-yl)amino)-1-oxopropan-2-yl)phenyl)pyridin-2-yl)-4-((S)-2-(methoxymethyl)pyrrolidin-1-yl)but-2-enamide] the same measures were 81% and 25 to 100 nM. For the compound `C=CC(=O)Nc1ccc(-c2cccc(C(C)C(=O)Nc3cc(C4CC4)[nH]n3)c2)c(OC)c1` (centres unmarked) [Compound 73, N-(3′-(1-((5-cyclopropyl-1H-pyrazol-3-yl)amino)-1-oxopropan-2-yl)-2-methoxy-[1,1′-biphenyl]-4-yl)acrylamide], the inhibition at 10 µM was found to be 91% and the IC50 is above 100 nM. For `C=CC(=O)NCc1ccc(-c2cccc(C(C)C(=O)Nc3cc(C4CC4)[nH]n3)c2)cn1` (centres unmarked) [Compound 74, N-((5-(3-(1-((5-cyclopropyl-1H-pyrazol-3-yl)amino)-1-oxopropan-2-yl)phenyl)pyridin-2-yl)methyl)acrylamide] the same measures were 79% and above 100 nM. For `C=CC(=O)Nc1ccc(-c2cccc(C(C)C(=O)Nc3cc(C4CC4)[nH]n3)c2)c(C)c1` (centres unmarked) [Compound 75, N-(3′-(1-((5-cyclopropyl-1H-pyrazol-3-yl)amino)-1-oxopropan-2-yl)-2-methyl-[1,1′-biphenyl]-4-yl)acrylamide], the inhibition at 10 µM worked out at 78% and the IC50 is above 100 nM. For `C=CC(=O)N1CCc2cc(-c3cccc(C(C)C(=O)Nc4cc(C5CC5)[nH]n4)c3)ccc21` (centres unmarked) [Compound 76, 2-(3-(1-acryloylindolin-5-yl)phenyl)-N-(5-cyclopropyl-1H-pyrazol-3-yl)propanamide] the same measures were 98% and below 25 nM. On to `COC[C@@H]1C[C@H](F)CN1C/C=C/C(=O)Nc1ccc(-c2cccc(C(C)C(=O)Nc3cc(C4CC4)[nH]n3)c2)cn1` (stereo partly drawn) [Compound 77, (E)-N-(5-(3-(1-((5-cyclopropyl-1H-pyrazol-3-yl)amino)-1-oxopropan-2-yl)phenyl)pyridin-2-yl)-4-((2S,4S)-4-fluoro-2-(methoxymethyl)pyrrolidin-1-yl)but-2-enamide], for which the inhibition at 10 µM came to 98% and the IC50 is 25 to 100 nM. For `CC(C(=O)Nc1cc(C2CC2)[nH]n1)c1cccc(-c2ccc(NC(=O)/C=C/CN3CCC(C#N)C3)nc2)c1` (centres unmarked) [Compound 78, (E)-4-(3-cyanopyrrolidin-1-yl)-N-(5-(3-(1-((5-cyclopropyl-1H-pyrazol-3-yl)amino)-1-oxopropan-2-yl)phenyl)pyridin-2-yl)but-2-enamide] the same measures were 100% and 25 to 100 nM. Taken in the same sequence, the figures for `C=CC(=O)Nc1cncc(-c2cccc(C(C)C(=O)Nc3cc(C4CC4)[nH]n3)c2)n1` (centres unmarked) [Compound 79, N-(6-(3-(1-((5-cyclopropyl-1H-pyrazol-3-yl)amino)-1-oxopropan-2-yl)phenyl)pyrazin-2-yl)acrylamide] were 102% and below 25 nM.

As to `CC(C(=O)Nc1cc(C2CC2)[nH]n1)c1cccc(-c2ccc(NC(=O)/C=C/CN3CC[C@H](F)C3)c(F)c2)c1` (stereo partly drawn) [Compound 80, (E)-N-(3′-(1-((5-cyclopropyl-1H-pyrazol-3-yl)amino)-1-oxopropan-2-yl)-3-fluoro-[1,1′-biphenyl]-4-yl)-4-((S)-3-fluoropyrrolidin-1-yl)but-2-enamide], the inhibition at 10 µM was determined as 95% and the IC50 is 25 to 100 nM. For `COC(=O)[C@@H]1CCCN1C/C=C/C(=O)Nc1ccc(-c2cccc(C(C)C(=O)Nc3cc(C4CC4)[nH]n3)c2)cn1` (stereo partly drawn) [Compound 81, methyl ((E)-4-((5-(3-(1-((5-cyclopropyl-1H-pyrazol-3-yl)amino)-1-oxopropan-2-yl)phenyl)pyridin-2-yl)amino)-4-oxobut-2-en-1-yl)-L-prolinate] the same measures were 100% and 25 to 100 nM. `CC(C(=O)Nc1cc(C2CC2)[nH]n1)c1cccc(-c2ccc(NC(=O)/C=C/CN3CCC[C@H]3CC#N)nc2)c1` (stereo partly drawn) [Compound 82, (E)-4-((S)-2-(cyanomethyl)pyrrolidin-1-yl)-N-(5-(3-(1-((5-cyclopropyl-1H-pyrazol-3-yl)amino)-1-oxopropan-2-yl)phenyl)pyridin-2-yl)but-2-enamide]: the inhibition at 10 µM is 99% and the IC50 fell in the range of 25 to 100 nM. For `C=CC(=O)Nc1ccc(C(=O)Nc2cccc(Nc3cc(CC)[nH]n3)c2)cc1` [Compound 83, 4-acrylamido-N-(3-((5-ethyl-1H-pyrazol-3-yl)amino)phenyl)benzamide] the same measures were 62% and above 100 nM.

On to `CC(C(=O)Nc1cc(C2CC2)[nH]n1)c1cccc(C2=CCN(C(=O)/C=C/CN(C)C)CC2)c1` (centres unmarked) [Compound 84, (E)-N-(5-cyclopropyl-1H-pyrazol-3-yl)-2-(3-(1-(4-(dimethylamino)but-2-enoyl)-1,2,3,6-tetrahydropyridin-4-yl)phenyl)propanamide], for which the inhibition at 10 µM is 88% and the half-maximal inhibitory concentration (IC50) is above 100 nM. For `CC(C(=O)Nc1cc(C2CC2)[nH]n1)c1cccc(C2CCN(C(=O)/C=C/CN(C)C)CC2)c1` (centres unmarked) [Compound 85, (E)-N-(5-cyclopropyl-1H-pyrazol-3-yl)-2-(3-(1-(4-(dimethylamino)but-2-enoyl)piperidin-4-yl)phenyl)propanamide] the same measures were 74% and above 100 nM.

For `C=CC(=O)Nc1ccc(-c2cccc(CC(=O)Nc3cc(C)[nH]n3)c2)cc1` [Compound 86, N-(3′-(2-((5-Methyl-1H-pyrazol-3-yl)amino)-2-oxoethyl)-[1,1′-biphenyl]-4-yl)acrylamide], the inhibition at 10 µM was determined as 48%. Regarding `C=CC(=O)Nc1ccc(-c2cccc(C(C)C(=O)Nc3cc(CC)[nH]n3)c2)cc1` (centres unmarked) [Compound 87, N-(3′-(1-((5-ethyl-1H-pyrazol-3-yl)amino)-1-oxopropan-2-yl)-[1,1′-biphenyl]-4-yl)acrylamide], the inhibition at 10 µM stood at 89% and the IC50 is above 100 nM.

`C=CC(=O)Nc1ccc(-c2cccc(C(C)C(=O)Nc3cc(C(C)(C)C)[nH]n3)c2)cc1` (centres unmarked) [Compound 88, N-(3′-(1-((5-(tert-butyl)-1H-pyrazol-3-yl)amino)-1-oxopropan-2-yl)-[1,1′-biphenyl]-4-yl)acrylamide]: the inhibition at 10 µM is 62% and the IC50 was above 100 nM. On to `CN(C)C/C=C/C(=O)Nc1ccc(C(=O)Nc2cccc(Nc3n[nH]c4ccccc34)c2)cc1` [Compound 89, (E)-N-(3-((1H-indazol-3-yl)amino)phenyl)-4-(4-(dimethylamino)but-2-enamido)benzamide], for which the inhibition at 10 µM was 45%.

Consider `C=CC(=O)Nc1ccc(-c2cccc(C(C)C(=O)Nc3n[nH]c4ccccc34)c2)cc1` (centres unmarked) [Compound 90, N-(3′-(1-((1H-indazol-3-yl)amino)-1-oxopropan-2-yl)-[1,1′-biphenyl]-4-yl)acrylamide], for which the inhibition at 10 µM is 83% and the IC50 is above 100 nM. Taken in the same sequence, the figures for `CC(C(=O)Nc1n[nH]c2ccccc12)c1cccc(-c2ccc(NC(=O)/C=C/CN(C)C)cc2)c1` (centres unmarked) [Compound 91, (E)-N-(3′-(1-((1H-indazol-3-yl)amino)-1-oxopropan-2-yl)-[1,1′-biphenyl]-4-yl)-4-(dimethylamino)but-2-enamide] were 84% and above 100 nM. Taken in the same sequence, the figures for `CC(C(=O)Nc1cc(C2CC2)[nH]n1)c1cccc(-c2cncc(NC(=O)/C=C/CN3CCCC3)n2)c1` (centres unmarked) [Compound 92, (E)-N-(6-(3-(1-((5-cyclopropyl-1H-pyrazol-3-yl)amino)-1-oxopropan-2-yl)phenyl)pyrazin-2-yl)-4-(pyrrolidin-1-yl)but-2-enamide] were 86% and 25 to 100 nM. Taken in the same sequence, the figures for `C[C@H](C(=O)Nc1cc(C2CC2)[nH]n1)c1cccc(-c2ccc(NC(=O)/C=C/CN3CCOCC3)nc2)c1` [Compound 93, (S,E)-N-(5-(3-(1-((5-cyclopropyl-1H-pyrazol-3-yl)amino)-1-oxopropan-2-yl)phenyl)pyridin-2-yl)-4-morpholinobut-2-enamide] were 100% and below 25 nM.

On to `O=C(/C=C/CN1CCCC1)Nc1ccc(-c2cccc(C3(C(=O)Nc4cc(C5CC5)[nH]n4)CC3)c2)cn1` [Compound 94, (E)-N-(5-cyclopropyl-1H-pyrazol-3-yl)-1-(3-(6-(4-(pyrrolidin-1-yl)but-2-enamido)pyridin-3-yl)phenyl)cyclopropane-1-carboxamide], for which the inhibition at 10 µM worked out at 85% and the IC50 was above 100 nM.

The inhibition is the change of the read-out against control, counted positive when it falls. In general, IC50 refers to the concentration that gives 50% inhibition.
